Article PMC4039632 (Journal of molecular biology, 2013)

Target: T1, EngD (Endoglucanase D) (Clostridium cellulovorans, UniProt P28623)
T1 sequence (P28623 32-515): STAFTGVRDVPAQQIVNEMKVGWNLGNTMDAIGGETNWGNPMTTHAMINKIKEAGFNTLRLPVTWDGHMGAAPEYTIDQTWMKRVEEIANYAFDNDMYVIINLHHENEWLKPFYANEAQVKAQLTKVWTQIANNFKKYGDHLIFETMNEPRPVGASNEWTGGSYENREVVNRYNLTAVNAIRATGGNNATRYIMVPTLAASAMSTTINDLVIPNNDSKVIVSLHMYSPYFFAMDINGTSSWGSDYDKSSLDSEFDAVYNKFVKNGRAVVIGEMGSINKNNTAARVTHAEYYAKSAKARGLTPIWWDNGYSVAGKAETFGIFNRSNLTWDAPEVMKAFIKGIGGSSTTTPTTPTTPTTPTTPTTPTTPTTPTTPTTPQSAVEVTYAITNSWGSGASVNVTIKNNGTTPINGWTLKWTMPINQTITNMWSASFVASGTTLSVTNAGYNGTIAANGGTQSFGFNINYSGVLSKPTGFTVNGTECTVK
Experiment: HPLC of hydrolysis products
Assay type: biochemical
Details: 2 mM substrate, 100 mM sodium citrate pH 5.0, 37 °C, 30 min

OC[C@H]1O[C@@H](O[C@H]2[C@H](O)[C@@H](O)[C@H](O[C@H]3[C@H](O)[C@@H](O)[C@H](O[C@H]4[C@H](O)[C@@H](O)[C@H](O[C@H]5[C@H](O)[C@@H](O)[C@H](O[C@H]6[C@H](O)[C@@H](O)C(O)O[C@@H]6CO)O[C@@H]5CO)O[C@@H]4CO)O[C@@H]3CO)O[C@@H]2CO)[C@H](O)[C@@H](O)[C@@H]1O (stereo partly shown) [G6, cellohexaose]
HPLC of hydrolysis products: Wild type EngD produced an equal amount cellotriose and cellobiose in the degradation of cellohexaose
